# Patent US5070210A, “Novel ketenimines as intermediates for insecticides” (ICI Americas Inc., priority 1990, dated 1991)
# Experiments:
# Assay type in all cases: in vivo
# [1] = test system: Aster Leafhopper [Macrosteles fascifrens (Stal)]; test: Aster leafhopper insecticidal test; details: adults/nymphs, percent in solution; 48 hours
# Protocol: The compounds in Tables 1 and 2 above were tested for insecticidal activity using the following testing procedures. LC50 values, based on the results of these tests and calculated according to dosage-mortality curves, are expressed in Table 3.
# Aster Leafhopper [Macrosteles fascifrens (Stal)]
# Oat seedlings (Avena sp) were grown in a commercial potting soil in cups. When the plants were approximately 10 cm tall they were thinned to three plants per cup and dipped for 2-3 seconds in 50-50 acetone-water solutions of the test compounds. When the plants had dried, a clear plastic tube was placed over them and the bottom end pressed into the cup. Ten aster leafhopper adults/nymphs were then placed in each tube and the tops of the tubes covered with white organdy cloth. Mortality counts were made after 48 hours. Test concentrations ranged from 0.05% down to that at which 50% mortality occurred. The LC50 values are expressed below in Table 3 under the heading "LH" in terms of the percent of the test compound in the solution.
# [2] = test system: Housefly [Musca domestica]; test: Housefly insecticidal test; details: μg per 25 female flies; mortality after 48 hours
# Summary of the method: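 Dry-film exposure of 25 female houseflies per cage, 48 h; LC50 as μg per 25 flies.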
# [3] = test system: Tobacco Budworm [Heliothis virescens (Fabricius)] eggs; test: Tobacco budworm egg test; details: 2-day old eggs, percent in solution
# Summary of the method: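 Step 1: dip 2-day old egg patches in acetone test solutions (top concentration 0.1%). Step 2: hold in dishes with rearing medium at 78° F. Step 3: record mortality after control hatch and feeding.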
# [4] = test system: Cabbage Looper [Trichoplusia ni (Hubner)]; test: Cabbage looper insecticidal test; details: second-instar larvae, percent in solution; 3-5 days
# Summary of the method: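 Squash cotyledons dipped in test solution (acetone-water 50-50, ≤0.1%), dried, offered to 5 second-instar larvae; mortality after 3-5 days gives LC50.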
# [5] = test system: Maize weevil [Sitophilus Zeamais (Motschulsky)]; test: Maize weevil insecticidal test; details: adult weevils, percent in solution; 48 hours
# Summary of the method: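 LC50, in percent of compound in solution, was derived from dosage-mortality curves after 48 h at about 25 °C. Ten adult weevils per container fed on four corn seeds briefly immersed in acetone:water (50:50) solutions of up to 0.01% and dried.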
SMILES,"LC50, LH [1]","LC50, HF [2]","LC50, TBW, E (TBW-E) [3]","LC50, CL [4]","LC50, MW [5]"
CC(C)CC(=Nc1cc(Cl)cc(Cl)c1)OCc1cccc(Oc2ccccc2)c1 [Compound 10],> 0.05%,> 100 µg,> 0.1%,0.01%,
CC(C)C(=Nc1cc(Cl)cc(Cl)c1)OCc1cccc(Oc2ccccc2)c1 [Compound 16],0.0005%,20 µg,0.04%,0.004%,
CC(C)C(=Nc1cc(Cl)c(Cl)c(Cl)c1)OCc1cccc(Oc2ccccc2)c1 [Compound 20],0.003%,64 µg,< 0.1%,0.0025%,
Fc1ccc(N=C(OCc2cccc(Oc3ccccc3)c2)C(Cl)=C(Cl)Cl)cc1 [Compound 49],> 0.05%,> 100 µg,> 0.05%,0.007%,
CC(C)C(=Nc1c(F)c(F)cc(F)c1F)OCc1cccc(Oc2ccccc2)c1 [Compound 57],0.0005%,> 100 µg,0.1%,0.004%,
COc1ccc(OC)c(N=C(OCc2cccc(Oc3ccccc3)c2)C(C)C)c1 [Compound 69],> 0.05%,> 100 µg,> 0.1%,0.09%,
CC(C)C(=Nc1ccc(OC(F)(F)F)cc1)OCc1cccc(Oc2ccccc2)c1 [Compound 70],> 0.05%,< 100 µg,0.01%,< 0.1%,
CC(C)C(=Nc1ccc(C(F)(F)F)c(Cl)c1)OCc1cccc(Oc2ccccc2)c1 [Compound 83],> 0.05%,> 100 µg,> 0.1%,0.007%,
Cc1ccc(N=C(OCc2cccc(Oc3ccccc3)c2)C(C)C)cc1Cl [Compound 90],0.001%,> 100 µg,0.016%,> 0.1%,
COc1c(Cl)cc(N=C(OCc2cccc(Oc3ccccc3)c2)C(C)C)cc1Cl [Compound 91],0.003%,37 µg,> 0.01%,0.002%,
CC(C)C(=Nc1c(Cl)cc([N+](=O)[O-])cc1Cl)OCc1cccc(Oc2ccccc2)c1 [Compound 92],> 0.05%,> 100 µg,> 0.1%,0.015%,
Clc1ccc(N=C(OCc2cccc(Oc3ccccc3)c2)C(Cl)Cl)c2ccccc12 [Compound 98],> 0.05%,> 100 µg,0.1%,0.016%,
CC(C)C(=Nc1ccc(Cl)c(C(F)(F)F)c1)OCc1cccc(Oc2ccccc2)n1 [Compound 555],,< 100 µg,> 0.1%,0.002%,> 0.01%
CC(C)C(=Nc1ccc2c(c1)OC(F)(F)O2)OCc1cccc(Oc2ccccc2)n1 [Compound 556],,< 100 µg,0.04%,0.0007%,> 0.01%
CC(C)C(=Nc1cccc(Br)c1)OCc1cccc(Oc2ccc(Cl)cc2)n1 [Compound 557],,< 100 µg,> 0.1%,0.0004%,> 0.01%
CC(C)C(=Nc1ccc(F)c(Br)c1)OCc1cccc(Oc2ccccc2)n1 [Compound 558],,< 100 µg,> 0.1%,0.00045%,> 0.01%
CC(C)C(=Nc1ccc(F)c(F)c1)OCc1cccc(Oc2ccc(Cl)cc2)n1 [Compound 559],,< 100 µg,0.017%,0.00027%,> 0.01%
C=C(C)C(=Nc1ccc(C(F)(F)F)cc1)OCc1cccc(Oc2ccc(Cl)cc2)n1 [Compound 560],,< 100 µg,< 0.1%,0.0015%,> 0.01%
